# According to the supplement of paper PMC4862054:
# Columns and labels:
# Conditions in all cases: incubation time: 72 h
# MDA-MB-468 [1] = assay: normalised response (% of control), CellTiter-Glo; higher = more viable cells (100 = DMSO, 0 = benzethonium chloride kill control)
# How it was run: (§1)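 Breast cancer cell lines in 20 µl suspension were added to 384-well plates containing compound at 5 concentrations, spaced in 10-fold steps across a 10,000-fold range chosen for each compound, and incubated for 72 h. CellTox Green fluorescence was read at 485/520 nm, followed by CellTiter-Glo luminescence after 10 min at room temperature. Signals on each plate were normalised so that 0.1 % DMSO equals 100 and a positive kill control equals 0. Every value in the table is the normalised signal at one concentration of the series.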
# DU-4475 [2] = assay: as above
# How it was run: as §1
# MDA-MB-231 [3] = assay: as above
# How it was run: as §1
# CAL-120 [4] = assay: as above
# How it was run: as §1
# MCF-10A = assay: as above
# How it was run: as §1
# HCC1937 [5] = assay: as above
# How it was run: as §1
# MFM-223 [6] = assay: as above
# How it was run: as §1
# CAL-148 [7] = assay: as above
# How it was run: as §1
# BT-474 [8] = assay: as above
# How it was run: as §1
# MDA-MB-453 [9] = assay: as above
# How it was run: as §1
# Hs578T [10] = assay: as above
# How it was run: as §1
# BT-549 [11] = assay: as above
# How it was run: as §1
# MDA-MB-436 [12] = assay: as above
# How it was run: as §1
# SK-BR-3 [13] = assay: as above
# How it was run: as §1
# HCC1599 [14] = assay: as above
# How it was run: as §1
# HDQ-P1 [15] = assay: as above
# How it was run: as §1
# CAL-51 [16] = assay: as above
# How it was run: as §1
# CAL-85-1 [17] = assay: as above
# How it was run: as §1
# HCC1143 [18] = assay: as above
# How it was run: as §1
# MDA-MB-468 [19] = assay: normalised viability (% of control), CellTiter-Blue; higher = more viable cells (100 = DMSO, 0 = benzethonium chloride kill control)
# How it was run: (§2)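 Breast cancer cell lines were treated for 72 h in 384-well format and measured by CellTiter-Blue fluorescence at 560/590 nm. Results were normalised per plate to vehicle (100) and a positive kill control (0). The entry is normalised viability at a single listed concentration of the series.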
# DU-4475 [20] = assay: as above
# How it was run: as §2
# MDA-MB-231 [21] = assay: as above
# How it was run: as §2
# CAL-120 [22] = assay: as above
# How it was run: as §2
# HCC1937 [23] = assay: as above
# How it was run: as §2
# MFM-223 [24] = assay: as above
# How it was run: as §2
# CAL-148 [25] = assay: as above
# How it was run: as §2
# BT-474 [26] = assay: as above
# How it was run: as §2
# MDA-MB-453 [27] = assay: as above
# How it was run: as §2
# Hs578T [28] = assay: as above
# How it was run: as §2
# BT-549 [29] = assay: as above
# How it was run: as §2
# MDA-MB-436 [30] = assay: as above
# How it was run: as §2
# SK-BR-3 [31] = assay: as above
# How it was run: as §2
# HCC1599 [32] = assay: as above
# How it was run: as §2
# HDQ-P1 [33] = assay: as above
# How it was run: as §2
# CAL-51 [34] = assay: as above
# How it was run: as §2
# CAL-85-1 [35] = assay: as above
# How it was run: as §2
# HCC1143 [36] = assay: as above
# How it was run: as §2
Compound,normalised response (MDA-MB-468 [1]) [%],normalised response (DU-4475 [2]) [%],normalised response (MDA-MB-231 [3]) [%],normalised response (CAL-120 [4]) [%],normalised response (MCF-10A) [%],normalised response (HCC1937 [5]) [%],normalised response (MFM-223 [6]) [%],normalised response (CAL-148 [7]) [%],normalised response (BT-474 [8]) [%],normalised response (MDA-MB-453 [9]) [%],normalised response (Hs578T [10]) [%],normalised response (BT-549 [11]) [%],normalised response (MDA-MB-436 [12]) [%],normalised response (SK-BR-3 [13]) [%],normalised response (HCC1599 [14]) [%],normalised response (HDQ-P1 [15]) [%],normalised response (CAL-51 [16]) [%],normalised response (CAL-85-1 [17]) [%],normalised response (HCC1143 [18]) [%],normalised viability (MDA-MB-468 [19]) [%],normalised viability (DU-4475 [20]) [%],normalised viability (MDA-MB-231 [21]) [%],normalised viability (CAL-120 [22]) [%],normalised viability (HCC1937 [23]) [%],normalised viability (MFM-223 [24]) [%],normalised viability (CAL-148 [25]) [%],normalised viability (BT-474 [26]) [%],normalised viability (MDA-MB-453 [27]) [%],normalised viability (Hs578T [28]) [%],normalised viability (BT-549 [29]) [%],normalised viability (MDA-MB-436 [30]) [%],normalised viability (SK-BR-3 [31]) [%],normalised viability (HCC1599 [32]) [%],normalised viability (HDQ-P1 [33]) [%],normalised viability (CAL-51 [34]) [%],normalised viability (CAL-85-1 [35]) [%],normalised viability (HCC1143 [36]) [%]
Cn1cnc2c(F)c(Nc3ccc(Br)cc3F)c(C(=O)NOCCO)cc21 [MEK-162] (0.1 nM),108,98.6,101,103,105,94.4,101,96.2,104,115,94.3,98.5,97.9,103,114,99.2,93.5,100,94.3,104,106,116,83.7,105,92.1,111,122,100,125,105,104,102,108,102,109,91.2,112
CCOc1cc2ncc(C#N)c(Nc3ccc(OCc4ccccn4)c(Cl)c3)c2cc1NC(=O)/C=C/CN(C)C [Neratinib] (0.1 nM),105,98.5,98.3,98.4,104,97.8,108,105,105,117,106,103,94.8,101,96.6,102,89,97.2,100,100,107,99.6,86,82.6,99.2,96.7,97.3,105,99.7,105,123,99.8,104,86.8,91.5,83,103
COc1ccc(C2=N[C@@H](c3ccc(Cl)cc3)[C@@H](c3ccc(Cl)cc3)N2C(=O)N2CCNC(=O)C2)c(OC(C)C)c1 [Nutlin-3] (1 nM),98.6,106,105,94.6,101,103,101,115,99.8,114,103,97.7,119,106,104,105,84.8,102,103,92.8,82.5,101,78.7,71.5,89.4,104,110,102,95.9,107,101,95.6,91.6,89,96.3,90.5,89.8
COC1=CC(c2cc3ccccc3[nH]2)=N/C1=C\c1[nH]c(C)cc1C [Obatoclax] (1 nM),98.7,100,96.6,96.4,87,95.4,92.8,87.8,96.6,90.6,93.5,97.7,95.6,89,87.7,92.9,111,95,92.5,99,93.6,71.4,79.6,90.5,81,94.7,96.2,86.2,103,90.6,83.5,74.9,85.6,78.8,105,78.3,81
